Take `CN(c1ccc(Oc2ccc3cc(C(=O)N4CCN(Cc5ccc(OCC(F)(F)F)cc5)CC4)n(C)c3c2)nc1)S(=O)(=O)c1ccc(Cl)c(Cl)c1` [Example 68, 3,4-Dichloro-N-methyl-N-[6-(1-methyl-2-{4-[4-(2,2,2-trifluoro-ethoxy)benzyl]piperazine-1-carbonyl}-1H-indol-6-yloxy)pyridin-3-yl]benzenesulfonamide]: the melting point was 165.9 to 167.2 °C.

`Cc1ccc(S(=O)(=O)Nc2ccc(Oc3ccc4cc(C(=O)N5CCN(Cc6ccc(OCC(F)(F)F)cc6)CC5)n(C)c4c3)nc2)cc1` [Example 71, 4-Methyl-N-[6-(1-methyl-2-{4-[4-(2,2,2-trifluoroethoxy)benzyl]-piperazine-1-carbonyl}-1H-indol-6-yloxy)pyridin-3-yl]benzene-sulfonamide] had a melting point of 198.3 to 200.3 °C.

Regarding `Br.Cn1c(C(=O)N2CCN(Cc3ccc(OCC(F)(F)F)cc3)CC2)cc2ccc(Oc3ccc(NS(C)(=O)=O)cn3)cc21` [Example 76, N-[6-(1-Methyl-2-{4-[4-(2,2,2-trifluoroethoxy)benzyl]piperazine-1-carbonyl}-1H-indol-6-yloxy)pyridin-3-yl]methanesulfonamide hydrobromide], the melting point is 237.8 to 240.1 °C.

For the molecule `Br.Cc1cc(Oc2ccc3cc(C(=O)N4CCN(Cc5ccc(OCC(F)(F)F)cc5)CC4)n(C)c3c2)ncc1N(C)S(C)(=O)=O` [Example 78, N-Methyl-N-[4-methyl-6-(1-methyl-2-{4-[4-(2,2,2-trifluoroethoxy)-benzyl]piperazine-1-carbonyl}-1H-indol-6-yloxy)pyridin-3-yl]-methanesulfonamide hydrobromide], the melting point fell in the range of 235.8 to 237.8 °C.

`Cn1c(C(=O)N2CCN(Cc3ccc4c(c3)OCO4)CC2)cc2cc(Oc3ccc(NC(=O)c4ccc(-n5cccc5)nc4)cn3)ccc21` [Example 225, N-{6-[2-(4-Benzo[1,3]dioxol-5-ylmethylpiperazine-1-carbonyl)-1-methyl-1H-indol-5-yloxy]pyridin-3-yl}-6-pyrrol-1-ylnicotinamide] returned a melting point of 155 to 158 °C.

The molecule `COc1ccc(CN2CCN(C(=O)c3cc4cc(Oc5ccc(NC(=O)c6ccc(-n7cccc7)nc6)cn5)ccc4n3C)CC2)cc1` [Example 226, N-(6-{2-[4-(4-Methoxybenzyl)piperazine-1-carbonyl]-1-methyl-1H-indol-5-yloxy}pyridin-3-yl)-6-pyrrol-1-ylnicotinamide] gave a melting point of 194 to 195 °C.

The molecule `COc1ccc(CN2CCN(C(=O)c3cc4cc(Oc5ccc(N(C)C(=O)c6ccc(-n7cccc7)nc6)cn5)ccc4n3C)CC2)cc1.O=C(O)C(=O)O.O=C(O)C(=O)O` [Example 227, N-(6-{2-[4-(4-Methoxybenzyl)piperazine-1-carbonyl]-1-methyl-1H-indol-5-yloxy}pyridin-3-yl)-N-methyl-6-pyrrol-1-ylnicotinamide dioxalate] showed a melting point of 185 to 187 °C.

`Br.COc1ccc(CN2CCN(C(=O)c3cc4cc(Oc5ccc(NC(=O)c6cc7cc(Br)ccc7[nH]6)cn5)ccc4n3C)CC2)cc1` [Example 228, 5-Bromo-1H-indole-2-carboxylic acid (6-{2-[4-(4-methoxybenzyl)-piperazine-1-carbonyl]-1-methyl-1H-indol-5-yloxy}pyridin-3-yl)-amide hydrobromide] registered a melting point of 263 to 265 °C.

Consider `COc1ccc(CN2CCN(C(=O)c3cc4cc(Oc5ccc(N(C)C(=O)c6cc7cc(Br)ccc7[nH]6)cn5)ccc4n3C)CC2)cc1.O=C(O)/C=C\C(=O)O` [Example 229, 5-Bromo-1H-indole-2-carboxylic acid (6-{2-[4-(4-methoxybenzyl)-piperazine-1-carbonyl]-1-methyl-1H-indol-5-yloxy}pyridin-3-yl)-methylamide maleate], for which the melting point was 205 to 207 °C.

One may read the melting point as the temperature of the solid-liquid transition.
